Assay results: patent US20090192142A1, “USE OF CARBAMAZEPINE DERIVATIVES FOR THE TREATMENT OF AGITATION IN DEMENTIA PATIENTS” (priority 2004, published 2009)

Tested on: community-dwelling elderly patients diagnosed with Alzheimer's disease (behavioral agitation)
Experiment: 8-week, open-label, single-arm study of oxcarbazepine for behavioral agitation in Alzheimer's disease patients
Assay type: in vivo, human
Details: for change from baseline in Cohen-Mansfield Agitation Inventory (CMAI) score (mean±SD): baseline 60.6±14.7, mean oxcarbazepine daily dose 340 mg/day (range 150-552 mg/day), p≦0.0002
Description: In an 8-week, open-label, single-arm study are recruited twenty-six patients community-dwelling elderly patients (>63 years of age) diagnosed with Alzheimer's disease. After a 1-week screening period to assess each patient's agitation level, oxcarbazepine 150 mg/day treatment is initiated and titrated by 150 mg/day every 3-7 days to a maximum of 1200 mg/day with a mean oxcarbazepine daily dose of 340 mg/day (range 150-552 mg/day). The primary outcome measure is improvement in behavioral agitation, based on the 38-item Cohen-Mansfield Agitation Inventory (CMAI) that evaluates the prevalence of pathologic and disruptive agitated behavior. Secondary evaluations include effects on neuropsychiatric symptoms, cognitive impairment, global functioning, and tolerability.
Significant reductions in CMAI score from baseline (mean±SD: 60.6±14.7) occur at each time point (mean±SD change from baseline on Day 14: −16.9±19.7, Day 28: −22.6±19.0, Day 56: −20.8±19.6; all p≦0.0002). […] Cognitive performance and global functioning remain stable throughout the study.

[1] = patients with Alzheimer's disease, open-label prospective study

With `NC(=O)N1c2ccccc2CC(=O)c2ccccc21` [oxcarbazepine, 10-oxo-10,II-dihydro-5H-dibenz(b,f)azepine-5-carboxamide] the “change from baseline in Cohen-Mansfield Agitation Inventory (CMAI) score (mean±SD)” value (shortened to “change from baseline … (mean±SD)”) (Day 14) was −16.9±19.7, the “change from baseline … (mean±SD)” value (Day 28) was −22.6±19.0 and the “change from baseline … (mean±SD)” value (Day 56) was −20.8±19.6. The “mean Neuropsychiatric Inventory score” value (each time point, all p≦0.02 versus screening) was “Significant improvement”, the “efficacy in the treatment of agitation” value [1] was “effective” and the tolerability [1] was “generally well tolerated”. For the same compound, the cognitive performance (throughout the 8-week study) was “remain stable” and the global functioning (throughout the 8-week study) was “remain stable”.
